For the first assay, the target named is T1, P2X7 receptor (Homo sapiens, UniProt Q99572).
T1 construct: host or cells: THP-1 cells differentiated with LPS and IFN-γ
T1 sequence (Q99572 1-595): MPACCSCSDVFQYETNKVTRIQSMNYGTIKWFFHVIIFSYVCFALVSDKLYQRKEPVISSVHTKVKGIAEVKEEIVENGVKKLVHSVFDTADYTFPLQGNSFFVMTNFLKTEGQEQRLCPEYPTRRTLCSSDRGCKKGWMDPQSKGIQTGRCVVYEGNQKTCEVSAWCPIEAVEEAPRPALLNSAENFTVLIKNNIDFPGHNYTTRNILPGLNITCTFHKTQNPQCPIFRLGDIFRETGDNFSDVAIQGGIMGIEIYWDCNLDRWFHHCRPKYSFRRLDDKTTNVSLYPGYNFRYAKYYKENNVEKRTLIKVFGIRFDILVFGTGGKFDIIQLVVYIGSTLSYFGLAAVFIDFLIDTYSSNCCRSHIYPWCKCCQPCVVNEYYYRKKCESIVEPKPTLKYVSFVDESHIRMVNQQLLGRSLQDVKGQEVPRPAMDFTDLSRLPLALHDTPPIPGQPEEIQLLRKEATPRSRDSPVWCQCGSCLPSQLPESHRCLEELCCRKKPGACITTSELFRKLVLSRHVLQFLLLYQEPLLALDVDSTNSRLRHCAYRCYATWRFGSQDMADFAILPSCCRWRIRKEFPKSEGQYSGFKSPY
The assay can be described thus: Alternate method for IL-1β release assay (differentiated THP-1 cells, BzATP-stimulated, ELISA). In kind it is cell-based. The following applies: P2X7; 0.1 μM compound (plus symbols); read-out: IL-1β % inhib @ 0.1 μM. In short, it runs like this:
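After 16 h differentiation with 100 ng/mL LPS and 100 ng/mL IFN-γ plus a further 2 h LPS priming, THP-1 cells were pretreated 30 min with compound, then stimulated with 250 uM BzATP (final) for 45 min. Supernatant IL-1β measured by ELISA; percent inhibition from background-adjusted levels versus untreated cells.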
Take `COc1cccc(C(=O)N2CCc3c(ncnc3NCC34CC5CC(CC(C5)C3)C4)C2)c1` [Compound 105]: the inhibition at 0.1 µM was 25 to 50%.
The same measure, in the same setting: as for `CCS(=O)(=O)N1CCc2c(ncnc2NCC23CC4CC(CC(C4)C2)C3)C1` [Compound 9], the figure is greater than 75%.

Staying with this assay, now noted: P2X7; 0.1 μM compound (symbols + to ++++); read-out: IL-1β % inhib @ 0.1 μM.
On to `O=C(OCc1ccc(F)cc1F)N1CCc2c(ncnc2NCC23CC4CC(CC(C4)C2)C3)C1` [Compound 325], for which the inhibition at 0.1 µM is greater than 75%.

The assay is the same for the next values; noted with them: P2X7; 0.3 μM compound (asterisk symbols); read-out: IL-1β % inhib @ 0.3 μM.
Regarding `O=c1ccc2cc(S(=O)(=O)N3CCc4c(ncnc4NCC45CC6CC(CC(C6)C4)C5)C3)ccc2o1` [Compound 28], the inhibition at 0.3 µM is 25 to 50%.
Consider `O=S(=O)(c1ccc(F)cc1Cl)N1CCc2c(ncnc2NCC23CC4CC(CC(C4)C2)C3)C1` [Compound 68], for which the inhibition at 0.3 µM fell in the range of 0 to 25%.
Still for that read-out and setting: with `O=C(COc1ccc(Cl)cc1)N1CCc2c(ncnc2NCC23CC4CC(CC(C4)C2)C3)C1` [Compound 119] the figure was 25 to 50%.
Still for that read-out and setting: as for `Cc1nn(C)c(C)c1S(=O)(=O)N1CCc2c(ncnc2NCC23CC4CC(CC(C4)C2)C3)C1` [Compound 54], the figure is 0 to 25%; as for `CC(C)CCN1CCc2c(ncnc2NCC23CC4CC(CC(C4)C2)C3)C1` [Compound 194], 25 to 50%; as for `O=C(c1cccc(Cl)c1)N1CCc2c(ncnc2NCC23CC4CC(CC(C4)C2)C3)C1` [Compound 108], greater than 75%.
In the case of `COc1cc(OC)cc(C(=O)N2CCc3c(ncnc3NCC34CC5CC(CC(C5)C3)C4)C2)c1` [Compound 101], the inhibition at 0.3 µM was in the range of 0 to 25%.
Same read-out and setting: as for `O=S(=O)(c1cc(Cl)ccc1F)N1CCc2c(ncnc2NCC23CC4CC(CC(C4)C2)C3)C1` [Compound 62], the figure is 25 to 50%; as for `COc1ccc(C(=O)N2CCc3c(ncnc3NCC34CC5CC(CC(C5)C3)C4)C2)cc1F` [Compound 158], greater than 75%; as for `COc1ccc(C)cc1S(=O)(=O)N1CCc2c(ncnc2NCC23CC4CC(CC(C4)C2)C3)C1` [Compound 71], 25 to 50%.

Still in this assay, the particulars now being: P2X7; 0.3 μM compound (symbols * to ****); read-out: IL-1β % inhib @ 0.3 μM.
Take `COc1ccc(OC)c(CN2CCc3c(ncnc3NCC34CC5CC(CC(C5)C3)C4)C2)c1` [Compound 242]: the inhibition at 0.3 µM is greater than 75%.
Same read-out and setting: with `Clc1cccc(CN2CCc3c(ncnc3NCC34CC5CC(CC(C5)C3)C4)C2)c1` [Compound 209] the figure was 0 to 25%; with `Brc1ccc(CN2CCc3c(ncnc3NCC34CC5CC(CC(C5)C3)C4)C2)cc1` [Compound 208], greater than 75%; with `COc1ccccc1CN1CCc2c(ncnc2NCC23CC4CC(CC(C4)C2)C3)C1` [Compound 226], greater than 75%.
The same measure, in the same setting: as for `O=C(CN1CCN(CCn2cccc2)CC1)N1CCc2c(ncnc2NCC2C3CC4CC(C3)CC2C4)C1` (stereo not drawn) [Compound 303], the figure is 25 to 50%.

These data come from patent US20100022531A1, “NOVEL COMPOUNDS AS P2X7 MODULATORS AND USES THEREOF” (RENOVIS, INC., priority 2005, published 2010).
